These compounds were tested against CFTR (Homo sapiens, UniProt P13569) (assay: T84 assay (FLIPR membrane potential)).
Format: cell-based
Parameters: Human colonic T84 cells are acquired from the European Collection of Cell Cultures (ECACC); host or cells: T84 human colonic cells
Protocol: (§1) For example, Human colonic T84 cells can be acquired from the European Collection of Cell Cultures (ECACC) and grown in standard culture conditions as described by the supplier. On the day before assay 25,000 T84 cells per well are plated into standard black walled, clear bottom 384-well assay plates in standard growth medium consisting of DMEM:F12 with 10% FBS and incubated overnight. On the day of the assay the plates are washed using a standard assay buffer (HBSS with 10 mM Hepes) and incubated for 15 minutes in serum free cell culture medium before the addition of a commercially available membrane potential sensitive fluorescent dye (FLIPR Red membrane potential dye, Molecular Devices Corporation). T84 cells are incubated with the FLIPR Red membrane potential dye for 45 minutes in the presence and absence of test compound before being transferred to a commercially available fluorescence imaging plate reader (FLIPR384, Molecular Devices Corporation). Fluorescence levels are monitored continuously every second for 150 seconds; after an initial 10 second baseline, CFTR channel activity is stimulated through the addition of 10 μM forskolin in the presence of 100 μM of the phosphodiesterase inhibitor iso-butyl-methylxanthine (IBMX). Addition of the forskolin leads to the activation of intracellular adenylyl cylase 1, elevating cAMP levels and results in the phosphorylation and opening of CFTR anion channels. CFTR channel opening causes chloride ion efflux and subsequent depolarization of the cells, which is measured by an increase in fluorescence. CFTR inhibitor compounds prevent cell depolarization and the associated increase in fluorescence.
as §1, with “Human colonic” for “For example, Human colonic”, “T84 cells are acquired from” for “T84 cells can be acquired from”, “(ECACC) and are grown in” for “(ECACC) and grown in”, “with 10 Mm Hepes) and” for “with 10 mM Hepes) and”, “1, elevating Camp levels and” for “1, elevating cAMP levels and”

Chain of CFTR (P13569 whole entry): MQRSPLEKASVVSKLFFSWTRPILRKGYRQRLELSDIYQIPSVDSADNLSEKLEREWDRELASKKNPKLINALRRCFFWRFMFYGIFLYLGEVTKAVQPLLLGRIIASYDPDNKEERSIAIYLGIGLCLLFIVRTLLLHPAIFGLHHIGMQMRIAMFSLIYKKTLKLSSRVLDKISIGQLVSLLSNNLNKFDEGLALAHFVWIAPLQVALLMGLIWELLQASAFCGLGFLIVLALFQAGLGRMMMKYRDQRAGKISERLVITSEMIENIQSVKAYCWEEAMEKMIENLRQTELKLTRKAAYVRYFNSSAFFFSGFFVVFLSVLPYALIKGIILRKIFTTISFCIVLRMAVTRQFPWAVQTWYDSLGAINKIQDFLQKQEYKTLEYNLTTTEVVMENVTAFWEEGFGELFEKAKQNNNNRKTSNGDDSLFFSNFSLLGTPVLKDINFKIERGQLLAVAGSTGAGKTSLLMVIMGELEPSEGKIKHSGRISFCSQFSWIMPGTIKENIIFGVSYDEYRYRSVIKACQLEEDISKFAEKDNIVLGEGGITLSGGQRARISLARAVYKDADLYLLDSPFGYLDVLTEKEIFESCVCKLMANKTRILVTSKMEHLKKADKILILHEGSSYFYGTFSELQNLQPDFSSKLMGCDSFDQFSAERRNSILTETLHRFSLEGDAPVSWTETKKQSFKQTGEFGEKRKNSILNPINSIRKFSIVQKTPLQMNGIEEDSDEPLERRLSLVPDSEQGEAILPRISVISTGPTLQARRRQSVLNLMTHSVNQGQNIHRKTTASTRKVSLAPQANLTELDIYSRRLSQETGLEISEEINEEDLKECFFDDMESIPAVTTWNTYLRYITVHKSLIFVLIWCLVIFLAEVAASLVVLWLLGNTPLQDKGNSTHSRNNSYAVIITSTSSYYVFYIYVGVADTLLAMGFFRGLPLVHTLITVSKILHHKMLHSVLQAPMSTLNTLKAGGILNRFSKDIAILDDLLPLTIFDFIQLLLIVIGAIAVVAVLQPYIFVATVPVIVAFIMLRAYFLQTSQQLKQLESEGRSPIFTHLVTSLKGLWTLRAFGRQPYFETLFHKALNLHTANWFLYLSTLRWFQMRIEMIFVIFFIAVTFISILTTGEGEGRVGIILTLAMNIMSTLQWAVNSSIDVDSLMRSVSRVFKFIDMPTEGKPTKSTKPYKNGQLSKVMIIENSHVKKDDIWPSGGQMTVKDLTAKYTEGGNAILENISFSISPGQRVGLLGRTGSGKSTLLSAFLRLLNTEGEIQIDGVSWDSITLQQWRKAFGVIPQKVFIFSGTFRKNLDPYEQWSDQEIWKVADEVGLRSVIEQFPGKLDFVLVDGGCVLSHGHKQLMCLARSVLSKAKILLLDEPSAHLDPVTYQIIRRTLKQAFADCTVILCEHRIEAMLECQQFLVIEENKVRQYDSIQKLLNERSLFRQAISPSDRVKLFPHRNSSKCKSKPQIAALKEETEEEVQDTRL

Row | IC50 [µM] | Compound
1 | 9.89 | O=C(NCc1cccc(-c2ccccc2)c1)c1nnc(-c2cc(Cl)c(O)c(Cl)c2)o1 [Compound 19, N-(biphenyl-3-ylmethyl)-5-(3,5-dichloro-4-hydroxyphenyl)-1,3,4-oxadiazole-2-carboxamide]
2 | 9.62 | CN(Cc1ccc(Cl)c(Cl)c1)C(=O)c1nnc(-c2ccc(NS(=O)(=O)C(F)(F)F)cc2)o1 [Compound 17, N-(3,4-dichlorobenzyl)-N-methyl-5-(4-(trifluoromethylsulfonamido)phenyl)-1,3,4-oxadiazole-2-carboxamide]
3 | 5.77 | O=C(NCC(c1ccccc1)c1ccccc1)c1nnc(-c2cc(Cl)c(O)c(Cl)c2)o1 [Compound 15, 5-(3,5-dichloro-4-hydroxyphenyl)-N-(2,2-diphenylethyl)-1,3,4-oxadiazole-2-carboxamide]
4 | 12.7 | CC(C)(C)c1ccc(CNC(=O)c2nnc(-c3ccc(NS(=O)(=O)C(F)(F)F)cc3)o2)cc1 [Compound 20, N-(4-tert-butylbenzyl)-5-(4-(trifluoromethylsulfonamido)phenyl)-1,3,4-oxadiazole-2-carboxamide]
5 | 27.8 | CC(NC(=O)c1nnc(-c2cc(Cl)c(O)c(Cl)c2)o1)c1ccc(Cl)cc1 (stereo not shown) [Compound 26, N-(1-(4-chlorophenyl)ethyl)-5-(3,5-dichloro-4-hydroxyphenyl)-1,3,4-oxadiazole-2-carboxamide]
6 | 20.6 | O=C(c1nnc(-c2ccc(NS(=O)(=O)C(F)(F)F)cc2)o1)N1CCN(c2cccc(C(F)(F)F)c2)CC1 [Compound 25, 1,1,1-trifluoro-N-(4-(5-(4-(3-(trifluoromethyl)phenyl)piperazine-1-carbonyl)-1,3,4-oxadiazol-2-yl)phenyl)methanesulfonamide]
7 | 14.3 | O=C(NCc1ccc(OC(F)(F)F)cc1)c1nnc(-c2cc(Cl)c(O)c(Cl)c2)o1 [Compound 22, 5-(3,5-dichloro-4-hydroxyphenyl)-N-(4-(trifluoromethoxy)benzyl)-1,3,4-oxadiazole-2-carboxamide]
8 | 13.3 | O=C(c1nnc(-c2cccc(NS(=O)(=O)C(F)(F)F)c2)o1)N1CCC(Cc2ccccc2)CC1 [Compound 8, N-(3-(5-(4-benzylpiperidine-1-carbonyl)-1,3,4-oxadiazol-2-yl)phenyl)-1,1,1-trifluoromethanesulfonamide]
9 | 13.4 | O=C(c1nnc(-c2cccc(NS(=O)(=O)C(F)(F)F)c2)o1)N1CCN(c2cccc(C(F)(F)F)c2)CC1 [Compound 11, 1,1,1-trifluoro-N-(3-(5-(4-(3-(trifluoromethyl)phenyl)piperazine-1-carbonyl)-1,3,4-oxadiazol-2-yl)phenyl)methanesulfonamide]
10 | 3.95 | O=C(NCc1ccc(Oc2ccccc2)cc1)c1nnc(-c2cc(Cl)c(O)c(Cl)c2)o1 [Compound 2, 5-(3,5-Dichloro-4-hydroxyphenyl)-N-(4-phenoxybenzyl)-1,3,4-oxadiazole-2-carboxamide]
11 | 11.8 | CN(Cc1ccc(Cl)c(Cl)c1)C(=O)c1nnc(-c2cccc(NS(=O)(=O)C(F)(F)F)c2)o1 [Compound 10, N-(3,4-dichlorobenzyl)-N-methyl-5-(3-(trifluoromethylsulfonamido)phenyl)-1,3,4-oxadiazole-2-carboxamide]
12 | 1.88 | CN(Cc1ccc(Cl)c(Cl)c1)C(=O)c1nnc(-c2cc(Cl)c(O)c(Cl)c2)o1 [Compound 12, 5-(3,5-dichloro-4-hydroxyphenyl)-N-(3,4-dichlorobenzyl)-N-methyl-1,3,4-oxadiazole-2-carboxamide]
13 | 3.26 | CN(Cc1cccc(Oc2ccccc2)c1)C(=O)c1nnc(-c2cc(Cl)c(O)c(Cl)c2)o1 [Compound 13, 5-(3,5-dichloro-4-hydroxyphenyl)-N-methyl-N-(3-phenoxybenzyl)-1,3,4-oxadiazole-2-carboxamide]
14 | 19.7 | O=C(NCc1ccc(F)c(C(F)(F)F)c1)c1nnc(-c2cc(Cl)c(O)c(Cl)c2)o1 [Compound 24, 5-(3,5-dichloro-4-hydroxyphenyl)-N-(4-fluoro-3-(trifluoromethyl)benzyl)-1,3,4-oxadiazole-2-carboxamide]
15 | 18.8 | O=C(NCc1ccc(Oc2ccccc2)cc1)c1nnc(-c2ccc(NS(=O)(=O)C(F)(F)F)cc2)o1 [Compound 23, N-(4-phenoxybenzyl)-5-(4-(trifluoromethylsulfonamido)phenyl)-1,3,4-oxadiazole-2-carboxamide]
16 | 5.37 | O=C(NCc1cccc(Oc2ccccc2)c1)c1nnc(-c2cc(Cl)c(O)c(Cl)c2)o1 [Compound 14, 5-(3,5-dichloro-4-hydroxyphenyl)-N-(3-phenoxybenzyl)-1,3,4-oxadiazole-2-carboxamide]
17 | 9.5 | O=C(c1nnc(-c2cc(Cl)c(O)c(Cl)c2)o1)N1CCC(Cc2ccccc2)CC1 [Compound 3, (4-benzylpiperidin-1-yl)(5-(3,5-dichloro-4-hydroxyphenyl)-1,3,4-oxadiazol-2-yl)methanone]
18 | 19 | CC(C)(C)c1ccc(CNC(=O)c2nnc(-c3cccc(NS(=O)(=O)C(F)(F)F)c3)o2)cc1 [Compound 9, N-(4-tert-butylbenzyl)-5-(3-(trifluoromethylsulfonamido)phenyl)-1,3,4-oxadiazole-2-carboxamide]
19 | 15.8 | O=C(NCc1ccc(Oc2ccccc2)cc1)c1nnc(-c2cccc(NS(=O)(=O)C(F)(F)F)c2)o1 [Compound 7, N-(4-phenoxybenzyl)-5-(3-(trifluoromethylsulfonamido)phenyl)-1,3,4-oxadiazole-2-carboxamide]
20 | 14.6 | O=C(NC(c1ccccc1)c1ccccc1)c1nnc(-c2cc(Cl)c(O)c(Cl)c2)o1 [Compound 6, N-benzhydryl-5-(3,5-dichloro-4-hydroxyphenyl)-1,3,4-oxadiazole-2-carboxamide]
21 | 7.38 | CC(C)(C)c1ccc(CNC(=O)c2nnc(-c3cc(Cl)c(O)c(Cl)c3)o2)cc1 [Compound 5, N-(4-tert-butylbenzyl)-5-(3,5-dichloro-4-hydroxyphenyl)-1,3,4-oxadiazole-2-carboxamide]
22 | 17.4 | O=C(NCc1cccc(OC(F)(F)F)c1)c1nnc(-c2cc(Cl)c(O)c(Cl)c2)o1 [Compound 1, 5-(3,5-dichloro-4-hydroxyphenyl)-N-(3-(trifluoromethoxy)benzyl)-1,3,4-oxadiazole-2-carboxamide]
23 | 13.6 | O=C(NCc1cc(F)cc(C(F)(F)F)c1)c1nnc(-c2cc(Cl)c(O)c(Cl)c2)o1 [Compound 21, 5-(3,5-dichloro-4-hydroxyphenyl)-N-(3-fluoro-5-(trifluoromethyl)benzyl)-1,3,4-oxadiazole-2-carboxamide]
24 | 9.86 | O=C(NCc1ccc(OCc2ccccc2)cc1)c1nnc(-c2cc(Cl)c(O)c(Cl)c2)o1 [Compound 18, N-(4-(benzyloxy)benzyl)-5-(3,5-dichloro-4-hydroxyphenyl)-1,3,4-oxadiazole-2-carboxamide]
25 | 7.53 | O=C(NCc1cccc(OCc2ccccc2)c1)c1nnc(-c2cc(Cl)c(O)c(Cl)c2)o1 [Compound 16, N-(3-(benzyloxy)benzyl)-5-(3,5-dichloro-4-hydroxyphenyl)-1,3,4-oxadiazole-2-carboxamide]

— patent US20120136003A1, “COMPOUNDS, COMPOSITIONS AND METHODS COMPRISING 1,3,4-OXADIAZOLE DERIVATIVES” (Institute For Oneworld Health, priority 2009, published 2012)
